We go through 3 compounds from US7189749B2, “Substituted phenoxyacetic acids” (The Institutes for Pharmaceutical Discovery LLC, priority 1999, dated 2007).

Assay [1] has as its target T1, human aldehyde reductase (hALR1) (Homo sapiens, UniProt P14550).
T1 sequence (P14550 1-325): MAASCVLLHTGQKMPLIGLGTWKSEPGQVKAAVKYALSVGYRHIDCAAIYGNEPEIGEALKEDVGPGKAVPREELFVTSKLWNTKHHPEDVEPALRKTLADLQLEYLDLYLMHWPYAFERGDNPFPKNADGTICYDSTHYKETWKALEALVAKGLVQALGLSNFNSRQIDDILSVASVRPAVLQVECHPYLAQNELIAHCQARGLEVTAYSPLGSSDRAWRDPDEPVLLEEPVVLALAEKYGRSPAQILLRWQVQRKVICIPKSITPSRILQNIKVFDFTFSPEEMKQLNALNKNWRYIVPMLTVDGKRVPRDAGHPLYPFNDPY
Put plainly: inhibition of human aldehyde reductase (hALR1), methods essentially of Ishii et al. The assay is classed as biochemical. Particulars: for IC50: concentration required to inhibit human aldehyde reductase activity by 50%; for hALR1/hALR2: ratio of hALR1 IC50 to hALR2 IC50, selectivity. How it is done:
In a second assay, a number of the same compounds were tested for their ability to inhibit aldehyde reductase (hAR1), a structurally related enzyme. […] Using this assay, the concentrations required to inhibit human aldehyde reductase activity by 50% (ICSO) were determined.
Since high potency of test compounds as inhibitors of aldose reductase is desirable, low hALR2 IC50 values are sought. On the other hand, high potency of test compounds as inhibitors of aldehyde reductase is undesirable, and high hALR1 IC50s values are sought. Accordingly, the hALR1/hALR2 ratio is used to determine the selectivity of the test compounds.

Assay [2] addresses human aldose reductase (hALR2) (Homo sapiens, UniProt P15121). Put plainly: inhibition of human aldose reductase (hALR2), methods similar to Butera et al. The assay is classed as biochemical. Particulars: concentration required to inhibit human aldose reductase activity by 50%. The protocol:
Representative compounds of the invention were tested for their potency, selectivity and efficacy as inhibitors of human aldose reductase.

Regarding `O=C(O)COc1cc(F)ccc1C(=O)NCc1nc2c(F)c(F)cc(F)c2s1` [Example 54, {5-Fluoro-2[(4,5,7-trifluoro-benzothiazol-2-ylmethyl)carbamoyl]-phenoxy}-acetic acid], in assay [1], the IC50 – broadly, the concentration that inhibits the measured activity by half – is 22 µM and the hALR1/hALR2 is given as 2,000. This compound also had a 50% inhibitory concentration (IC50) in assay [2] of 0.011 µM.
For `O=C(O)COc1cc(F)ccc1C(=S)NCc1nc2c(F)c(F)cc(F)c2s1` [Example 55, {5-Fluoro-2-[(4,5,7-trifluoro-benzothiazol-2-ylmethyl)-thiocarbamoyl]-phenoxy}-acetic acid] the same measures were 17 µM, 1,100 and 0.015 µM.
For `O=C(O)COc1cc(F)ccc1C(=O)NCc1nc2cc(C(F)(F)F)ccc2s1` [Example 56, {5-Fluoro-2-[(5-trifluoromethyl-benzothiazol-2-ylmethyl)-carbamoyl]-phenoxy}-acetic acid] the same measures were 22 µM, 760 and 0.029 µM.
